This note sets out measurements from the supplement of paper PMC10307832.

What all share (test): relative viability (nuclei count vs DMSO), 5 days (fraction); higher = more cells survive
Compound in assay [1]: C(C(=O)C(=O)O)Br [Bromopyruvate] + CS(=O)(=O)N1CCN(Cc2cc3nc(-c4cccc5[nH]ncc45)nc(N4CCOCC4)c3s2)CC1 [Pictilisib] (partner 1 µM)
In short, it runs like this:
(§1)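 Dosing by pin tool came one day after lung cancer cell lines were seeded in 1536-well plates, using either one drug or a fixed anchor-drug dose plus five library-drug doses (not always all listed) in √10 steps. After 5 days, nuclei were counted on 4× images. Relative viability is treated-well nuclei count divided by vehicle-well nuclei count, and values are medians of duplicate plates.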

Compound in assay [2]: C(C(=O)C(=O)O)Br [Bromopyruvate] + O=C(c1cc(Cc2n[nH]c(=O)c3ccccc23)ccc1F)N1CCN(C(=O)C2CC2)CC1 [Olaparib] (partner 8 µM)
In a few lines: as §1

Compound in assay [3]: C(C(=O)C(=O)O)Br [Bromopyruvate] + CC(C)C[C@H](NC(=O)[C@H](Cc1ccccc1)NC(=O)c1cnccn1)B(O)O [Bortezomib] (partner 0.002 µM)
In a few lines: as §1

Compound in assay [4]: CC(O)(CS(=O)(=O)c1ccc(F)cc1)C(=O)Nc1ccc(C#N)c(C(F)(F)F)c1 [Bicalutamide] + Cc1nc(Nc2ncc(C(=O)Nc3c(C)cccc3Cl)s2)cc(N2CCN(CCO)CC2)n1 [Dasatinib] (partner 0.075 µM)
In short, it runs like this: as §1

Consider PC-3 [JPC-3], for which the relative viability in assay [1] (first compound 1 µM) is 0.775; in assay [1] (first compound 3.162 µM), 0.724; in assay [1] (first compound 10 µM), 0.731; in assay [1] (first compound 31.62 µM) it was 0.694; in assay [1] (first compound 100 µM), 0.733; in assay [2] (first compound 1 µM), 1.22. The relative viability came to 1.11 in assay [2] (first compound 10 µM); 1.11 in assay [2] (first compound 100 µM); 0.796 in assay [3] (first compound 1 µM); 0.74 in assay [3] (first compound 3.162 µM); 0.832 in assay [3] (first compound 10 µM); 0.785 in assay [3] (first compound 31.62 µM). For the same cell line, the relative viability in assay [3] (first compound 100 µM) was 0.856; in assay [4] (first compound 0.08 µM), 1.04; in assay [4] (first compound 0.253 µM) it was 0.946; in assay [4] (first compound 0.8 µM) it was 1.05; in assay [4] (first compound 2.53 µM), 0.947.

For the cell line PC-14, the relative viability is 0.714 in assay [1] (first compound 1 µM); 0.692 in assay [1] (first compound 3.162 µM); 0.898 in assay [1] (first compound 10 µM); 0.808 in assay [1] (first compound 31.62 µM); 0.611 in assay [1] (first compound 100 µM); 0.297 in assay [2] (first compound 1 µM). Also, the relative viability in assay [2] (first compound 3.162 µM) is 0.368; in assay [2] (first compound 10 µM), 0.161; in assay [2] (first compound 31.62 µM), 0.32; in assay [2] (first compound 100 µM), 0.205; in assay [3] (first compound 1 µM) it was 0.958; in assay [3] (first compound 3.162 µM), 0.873. Moreover, the relative viability in assay [3] (first compound 10 µM) stood at 0.883; in assay [3] (first compound 31.62 µM), 1; in assay [3] (first compound 100 µM), 0.912; in assay [4] (first compound 0.08 µM), 0.263; in assay [4] (first compound 0.253 µM), 0.223; in assay [4] (first compound 0.8 µM), 0.264. Besides, the relative viability in assay [4] (first compound 2.53 µM) is 0.18.

For RERF-LC-KJ, the relative viability in assay [1] (first compound 1 µM) was 0.537; in assay [1] (first compound 3.162 µM) it was 0.563; in assay [1] (first compound 10 µM), 0.644; in assay [1] (first compound 31.62 µM), 0.617; in assay [1] (first compound 100 µM) it was 0.495; in assay [2] (first compound 1 µM), 0.981. The relative viability in assay [2] (first compound 3.162 µM) came to 0.857; in assay [2] (first compound 10 µM) it was 0.954; in assay [2] (first compound 31.62 µM) it was 0.942; in assay [2] (first compound 100 µM), 0.852; in assay [3] (first compound 1 µM) it was 1.09; in assay [3] (first compound 3.162 µM), 1.14. The relative viability in assay [3] (first compound 10 µM) is 1; in assay [3] (first compound 31.62 µM), 1.18; in assay [3] (first compound 100 µM) it was 1.29; in assay [4] (first compound 0.08 µM), 0.91; in assay [4] (first compound 0.253 µM) it was 0.814; in assay [4] (first compound 0.8 µM), 1.04. The relative viability in assay [4] (first compound 2.53 µM) is 0.694.

Turning to SK-LU-1, the relative viability was determined as 0.545 in assay [1] (first compound 1 µM); 0.65 in assay [1] (first compound 3.162 µM); 0.616 in assay [1] (first compound 10 µM); 0.551 in assay [1] (first compound 31.62 µM); 0.53 in assay [1] (first compound 100 µM); 0.425 in assay [2] (first compound 1 µM). The relative viability in assay [2] (first compound 3.162 µM) turned out to be 0.416; in assay [2] (first compound 10 µM), 0.492; in assay [2] (first compound 31.62 µM), 0.367; in assay [2] (first compound 100 µM), 0.424; in assay [3] (first compound 1 µM), 1.44; in assay [3] (first compound 3.162 µM), 1.01. Moreover, the relative viability was 1.82 in assay [3] (first compound 10 µM); 0.987 in assay [3] (first compound 31.62 µM); 1.27 in assay [3] (first compound 100 µM); 0.175 in assay [4] (first compound 0.08 µM); 0.206 in assay [4] (first compound 0.253 µM); 0.177 in assay [4] (first compound 0.8 µM). In assay [4] (first compound 2.53 µM), the relative viability came out at 0.169.

With SW 1573, the relative viability in assay [1] (first compound 1 µM) amounted to 0.463; in assay [1] (first compound 3.162 µM), 0.438; in assay [1] (first compound 10 µM) it was 0.46; in assay [1] (first compound 31.62 µM), 0.521; in assay [1] (first compound 100 µM) it was 0.303; in assay [2] (first compound 1 µM) it was 0.555. Also, the relative viability in assay [2] (first compound 3.162 µM) is 0.469; in assay [2] (first compound 10 µM), 0.475; in assay [2] (first compound 31.62 µM) it was 0.358; in assay [2] (first compound 100 µM), 0.0623; in assay [3] (first compound 1 µM), 0.935; in assay [3] (first compound 3.162 µM), 1.02. Further, the relative viability in assay [3] (first compound 10 µM) was 1.18; in assay [3] (first compound 31.62 µM) it was 1.08; in assay [3] (first compound 100 µM) it was 0.392; in assay [4] (first compound 0.08 µM) it was 0.525; in assay [4] (first compound 0.8 µM), 0.683; in assay [4] (first compound 2.53 µM), 0.275.

Take UMC-11: the relative viability in assay [1] (first compound 1 µM) was 0.797; in assay [1] (first compound 3.162 µM), 0.797; in assay [1] (first compound 10 µM) it was 0.956; in assay [1] (first compound 31.62 µM), 0.78; in assay [1] (first compound 100 µM) it was 0.78; in assay [2] (first compound 1 µM), 0.366. For the same cell line, the relative viability is 0.356 in assay [2] (first compound 3.162 µM); 0.374 in assay [2] (first compound 10 µM); 0.35 in assay [2] (first compound 31.62 µM); 0.393 in assay [2] (first compound 100 µM); 0.817 in assay [3] (first compound 1 µM); 0.79 in assay [3] (first compound 3.162 µM). The relative viability in assay [3] (first compound 10 µM) stood at 0.846; in assay [3] (first compound 31.62 µM), 0.645; in assay [3] (first compound 100 µM) it was 0.721; in assay [4] (first compound 0.08 µM), 0.523; in assay [4] (first compound 0.253 µM), 0.399; in assay [4] (first compound 0.8 µM), 0.576. Besides, the relative viability in assay [4] (first compound 2.53 µM) was determined as 0.431.
